# Source: patent US20050065348A1, “Pyridin-2-yl-methylamine derivatives for treating opioid dependence” (priority 2001, published 2005)
# Where a name gives a salt, the structure may show the parent alone.
# Assays:
# 5-HT1A receptor = biological target: T1, 5-HT1A receptor (Rattus norvegicus, UniProt P19327); experiment: Affinity for the 5-HT1A receptor (3H-8-OH-DPAT displacement); assay type: binding; settings: Tissue: cerebral cortex of rat, average of at least 3 experiments
# T1 construct: Tissue: cerebral cortex of rat; from tissue; host or cells: rat cerebral cortex
# T1 sequence (P19327 1-422): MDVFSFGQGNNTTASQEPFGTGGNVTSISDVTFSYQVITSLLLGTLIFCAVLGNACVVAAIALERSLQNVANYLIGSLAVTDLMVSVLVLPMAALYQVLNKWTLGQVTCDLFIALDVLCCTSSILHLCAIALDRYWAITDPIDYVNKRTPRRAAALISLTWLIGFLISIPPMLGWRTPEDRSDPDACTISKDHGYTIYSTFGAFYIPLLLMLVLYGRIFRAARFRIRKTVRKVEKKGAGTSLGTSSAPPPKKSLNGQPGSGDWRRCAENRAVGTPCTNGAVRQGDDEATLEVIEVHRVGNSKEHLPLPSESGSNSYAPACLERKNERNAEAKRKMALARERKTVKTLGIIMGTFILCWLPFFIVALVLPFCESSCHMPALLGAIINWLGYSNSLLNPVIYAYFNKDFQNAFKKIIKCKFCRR
# Protocol: Measurement of the affinity of compound F and reference products for the 5-HT1A receptor
# Study of the bond with the 5-HT1A receptor was carried out according to a standard method (Naunyn-Schmiedeberg's Arch. Pharmaco. 1991, 343, 106). The inhibition constants (Ki) of the products according to the invention were estimated from displacement experiments using the version 4 RADLIG non-linear regression programme of EBDA (Equilibrium Binding Data Analysis) (Biosoft, Cambridge, UK, Mc Pherson, 1985). The dissociation constants of the radioactive ligands used in the calculations are 0.31 nmole for ^3H-8-OH-DPAT. The values of pKi (−logKi) are provided under the form of average±SEM of at least 3 experiments.
# [1] = system: morphine withdrawal syndrome (hyperalgesia); experiment: Effects on morphine dependence: naloxone-precipitated withdrawal hyperalgesia (Randall and Selitto nociceptive thresholds); assay type: in vivo; settings: rat, s.c. osmotic mini-pumps 2 weeks
# Protocol: The products are administered by means of osmotic mini-pumps (model 2ML2; flow rate 5 μl/hr: Alza Corporation, Palo Alto, USA) implanted subcutaneously on the first day of the experiment and extracted two weeks later. The pump is set in place through a transversal incision made in the skin of the dorsal face of the rat, the liberation orifice being directed towards the head.
# The compound F is administered at 0.63 mg/rat/day (5.25 mg/ml) in solution in distilled water. […] The pumps implanted in the control animals release 0.12 ml of 0.9% NaCl (saline)/rat/day; the doses referring to the weight of the non salified compound.
# The study consists of two phases: a phase of chronic treatment lasting 2 weeks, and a withdrawal phase lasting 1 week.
# On the experiment's first day the rats were given implants of two osmotic mini-pumps.
# After two weeks of chronic treatment, the withdrawal phase began. After taking base measurements on day 14, all the animals received a sub-cutaneous injection of naloxone at 0.63 mg/kg. Next, 30 minutes, 1 hr, 2 hr, 4 hr, and 8 hr after the injection, another series of measurements was taken. The pumps were extracted after the last measurement at 8 hr after the naloxone injection. A series of measurements was also taken daily 24 hr to 4 days after the naloxone injection. During this withdrawal period, the nociceptive thresholds were measured using the Randall and Selitto method (Arch. Int. Pharmacodyn. 1957, CXI, 409) in which increasing pressure is applied to the back paw until the vocalisation threshold is reached. The results are expressed in grams and a 750 g limit is imposed.
# In order to evaluate the nociceptive thresholds, the areas under the curves (AUCs) were determined and processed by a variance analysis (ANOVA). The post-hoc comparisons (i.e. those following the variance analysis when the latter is significant) were made using the Student-Newman-Keuls (SNK) test for comparing groups with each other. A statistically significant effect was defined at p<0.05.
Compound,Ki (5-HT1A receptor; read-out: pKi site 5-HT1A (converted)),"Effect on hyperalgesia / morphine withdrawal syndrome (AUC of nociceptive thresholds) ([1]; co-treatment morphine 5 mg/rat/day + compound 2.5 mg/rat/day, naloxone 0.63 mg/kg s.c., SNK p<0.05 vs control)",pKi site 5-HT1A (5-HT1A receptor),"AUC of nociceptive thresholds 30 minutes to 4 days after naloxone, versus control animals ([1]; co-treatment morphine 5 mg/rat/day + compound 0.63 mg/rat/day, naloxone 0.63 mg/kg s.c., SNK p>0.05)","AUC of nociceptive thresholds 30 minutes to 4 days after naloxone, compound alone versus control animals ([1]; saline + compound 0.63 mg/rat/day, no morphine, p>0.05)"
"Clc1cnn(CCCCN2CCN(c3ncccn3)CC2)c1 [lesopitron, reference compound]",55 nM,did not have any detectable effect on the hyperalgesia,,,
"Cc1ccc(CNCC2(F)CCN(C(=O)c3ccc(F)c(Cl)c3)CC2)nc1 [compound F, (3-Chloro-4-fluorophenyl)-(4-fluoro-4-{[(5-methyl-pyridin-2-yl-methyl)-amino]-methyl}-piperidin-1-yl)-methadone fumarate]",,,9.07,statistically comparable with those obtained from the control animals,does not induce an effect on its own
